# Tests used:
# Assay type in all cases: functional
# Aspergillus flavus [1] = assay: Antifungal activity against Aspergillus flavus 871 by paper disk method relative to voriconazole
# Aspergillus niger [2] = assay: Antifungal activity against Aspergillus niger 281 by paper disk method relative to voriconazole
# Wickerhamiella azyma [3] = assay: Antifungal activity against Candida azyma 1452 by paper disk method relative to voriconazole
# Candida albicans [4] = assay: Antifungal activity against Candida albicans 227 by paper disk method relative to voriconazole
# Aspergillus niger [5] = assay: Antifungal activity against Aspergillus niger 281 by paper disk method
# Wickerhamiella azyma [6] = assay: Antifungal activity against Candida azyma 1452 by paper disk method
# Candida albicans [7] = assay: Antifungal activity against Candida albicans 227 by paper disk method
# Aspergillus flavus [8] = assay: Antifungal activity against Aspergillus flavus 871 by paper disk method
smiles,measurement,setting,value
C=CN1C(C)=C(C(C)=O)NN1c1ccccc1,inhibition (INH),Aspergillus flavus [1],-13.33%
same,inhibition (INH),Aspergillus niger [2],-33.33%
same,inhibition (INH),Wickerhamiella azyma [3],-26.67%
same,inhibition (INH),Candida albicans [4],-31.25%
C=CN1C(C)=C(C(C)=O)NN1c1ccc(OC)cc1,inhibition (INH),Aspergillus flavus [1],-20%
same,inhibition (INH),Aspergillus niger [2],-44.44%
same,inhibition (INH),Wickerhamiella azyma [3],-33.33%
same,inhibition (INH),Candida albicans [4],-37.5%
C[C@@H](c1ncncc1F)[C@](O)(Cn1cncn1)c1ccc(F)cc1F [VORICONAZOLE],inhibition zone (IZ),Aspergillus niger [5],18 mm
same,inhibition zone (IZ),Wickerhamiella azyma [6],15 mm
same,inhibition zone (IZ),Candida albicans [7],16 mm
same,inhibition zone (IZ),Aspergillus flavus [8],15 mm
C=CN1C(C)=C(C(C)=O)NN1c1cccc(C)c1,inhibition (INH),Aspergillus flavus [1],-46.67%
same,inhibition (INH),Aspergillus niger [2],-72.22%
same,inhibition (INH),Wickerhamiella azyma [3],-60%
same,inhibition (INH),Candida albicans [4],-62.5%
C=CN1C(C)=C(C(C)=O)NN1c1ccc([N+](=O)[O-])cc1,inhibition (INH),Aspergillus flavus [1],20%
same,inhibition (INH),Aspergillus niger [2],-27.78%
same,inhibition (INH),Wickerhamiella azyma [3],6.67%
same,inhibition (INH),Candida albicans [4],0%
C=CN1C(C)=C(C(C)=O)NN1c1cccc([N+](=O)[O-])c1,inhibition (INH),Aspergillus flavus [1],13.33%
same,inhibition (INH),Aspergillus niger [2],-33.33%
same,inhibition (INH),Wickerhamiella azyma [3],0%
same,inhibition (INH),Candida albicans [4],-6.25%
C=CN1C(C)=C(C(C)=O)NN1c1cccc(OC)c1,inhibition (INH),Aspergillus flavus [1],-26.67%
same,inhibition (INH),Aspergillus niger [2],-50%
same,inhibition (INH),Wickerhamiella azyma [3],-40%
same,inhibition (INH),Candida albicans [4],-43.75%
C=CN1C(C)=C(C(C)=O)NN1c1cccc(O)c1,inhibition (INH),Aspergillus flavus [1],40%
same,inhibition (INH),Aspergillus niger [2],11.11%
same,inhibition (INH),Wickerhamiella azyma [3],26.67%
same,inhibition (INH),Candida albicans [4],18.75%
C=CN1C(C)=C(C(C)=O)NN1c1ccc(C(=O)O)cc1,inhibition (INH),Aspergillus flavus [1],33.33%
same,inhibition (INH),Aspergillus niger [2],-11.11%
same,inhibition (INH),Wickerhamiella azyma [3],6.67%
same,inhibition (INH),Candida albicans [4],6.25%
C=CN1C(C)=C(C(C)=O)NN1c1ccc(Cl)cc1,inhibition (INH),Aspergillus flavus [1],-66.67%
same,inhibition (INH),Aspergillus niger [2],-94.44%
same,inhibition (INH),Wickerhamiella azyma [3],-80%
same,inhibition (INH),Candida albicans [4],-87.5%
C=CN1C(C)=C(C(C)=O)NN1c1ccc(C)cc1,inhibition (INH),Aspergillus flavus [1],-40%
same,inhibition (INH),Aspergillus niger [2],-66.67%
same,inhibition (INH),Wickerhamiella azyma [3],-53.33%
same,inhibition (INH),Candida albicans [4],-56.25%
C=CN1C(C)=C(C(C)=O)NN1c1ccc(O)cc1,inhibition (INH),Aspergillus flavus [1],46.67%
same,inhibition (INH),Aspergillus niger [2],16.67%
same,inhibition (INH),Wickerhamiella azyma [3],33.33%
same,inhibition (INH),Candida albicans [4],25%
C=CN1C(C)=C(C(C)=O)NN1c1cccc(Cl)c1,inhibition (INH),Aspergillus flavus [1],-73.33%
same,inhibition (INH),Aspergillus niger [2],-100%
same,inhibition (INH),Wickerhamiella azyma [3],-86.67%
same,inhibition (INH),Candida albicans [4],-93.75%
